Measured values as given in publication PMC4210713, “Intragenic antimicrobial peptides from Theobroma cacao” (BMC Proceedings, 2014).
Where no end group is shown, it is not given here.

System: Candida albicans ATCC 90028
Conditions: C. albicans ATCC 90028; broth microdilution, CLSI M27-A3; tested at 256 μM-0.5 μM; preliminary results

GFKDLLKGAAKALVKTVLF-NH2 [Ascaphin-8]
MIC (minimum inhibitory concentration): 8 µM
